Entries after “also recorded” stand apart in the source; their conditions may differ.
Tests used:
Acinetobacter baumannii = experiment: Disk diffusion test on Acinetobacter baumannii; type: cell-based
Description: (§1) Applicants undertook two rounds of studies. […] When agar plating was required, both rounds of Applicants' studies were undertaken using similar disk diffusion methods on bacteria grown on agar substrates in Petri dishes. These methods conform to those prescribed by the Clinical & Laboratory Standards Institute (https://clsi.org). […]

[1] = test system: MSSA (methicillin-sensitive Staphylococcus aureus); experiment: Disk diffusion test on Staphylococcus aureus (MSSA); type: cell-based
Description: as §1

Klebsiella pneumoniae = experiment: Disk diffusion test on Klebsiella pneumoniae; type: cell-based
Description: (§2) Applicants undertook two rounds of studies. The results of the first round are illustrated in FIGS. 1A-9B and discussed in the related text. The results of the second round of studies are illustrated in FIGS. 10-23 and discussed in the related text. When agar plating was required, both rounds of Applicants' studies were undertaken using similar disk diffusion methods on bacteria grown on agar substrates in Petri dishes. These methods conform to those prescribed by the Clinical & Laboratory Standards Institute (https://clsi.org).
(§3) Disk Diffusion tests with beta-lactam antibiotics with and without the beta-lactamase inhibitor of FIG. 1A. Closely spaced disks disclose possible synergistic or inhibitory effects between the antibiotics and the compound of FIG. 1A (labeled in FIGS. 4A-9B as Compound C). The distances between disks show the effectiveness of the possible synergy. […] Each disk contains either the compound of FIG. 1A or an antibiotic (one of FIGS. 3A-3D), or the compound of […] and an antibiotic (one of FIGS. 3A-3D). When a disk with the compound of FIG. 1A is in proximity to a disk with an antibiotic both agents diffuse into the bacterial growth medium, allowing us to observe the area where both agents are present at the same time. These disk diffusion tests were evaluated with the following:
(§4) As noted above, Applicants' studies were undertaken using similar disk diffusion methods on bacteria grown on agar substrates in Petri dishes. These methods conform to those prescribed by the Clinical & Laboratory Standards Institute (https://clsi.org).

[2] = test system: complicated urinary tract infection, including acute pyelonephritis; experiment: Intravenous cefepime plus 5-Boronothiophene-2-carboxylic acid in patients with complicated urinary tract infection; type: in vivo, adult patients; settings: cefepime 2.0 g + 5-Boronothiophene-2-carboxylic acid 0.5 g, intravenously over two hours every 8 hours, 7 days
Description: According to the disclosed invention, requisite amounts of both cefepime and 5-Boronothiophene-2-carboxylic acid are dissolved. Particularly, 2.0 g of cefepime are dissolved in sterile normal saline (0.9% sodium chloride) solution and 0.5 g of 5-Boronothiophene-2-carboxylic acid are dissolved in DMSO. Dissolution may be accelerated by use of an alcohol such as ethyl alcohol. Thereafter, a 2.5 g dose of a combination of cefepime (2.0 g) and 5-Boronothiophene-2-carboxylic acid (0.5 g) together with sterile normal saline (0.9% sodium chloride) as a diluent is administered to randomly assigned adult patients challenged with complicated urinary tract infection, including acute pyelonephritis, over a two-hour period with the dose being administered intravenously every 8 hours. A 1.0 g dose of a placebo is administered over 30-minute periods, every 8 hours also intravenously. The administration may be carried out over a period of 7 days.

Pseudomonas aeruginosa = experiment: Disk diffusion test on Pseudomonas aeruginosa; type: cell-based; settings: in combination with aztreonam
Description: as §1

[3] = test system: methicillin-resistant coagulase-negative Staphylococcus sps. (MRCoNS); experiment: Disk diffusion test on MRCoNS; type: cell-based
Description: as §2, §3, §4

Citrobacter freundii = experiment: Disk diffusion test on Citrobacter freundii; type: cell-based
Description: as §1

Escherichia coli = experiment: Disk diffusion test on Escherichia coli; type: cell-based
Description: as §1

[4] = in combination with ceftazidime
[5] = in combination with ceftriaxone

O=C(O)c1ccc(B(O)O)s1 [Compound C, 2-carboxythiophene-5-boronic acid]
effectiveness of the combination with antibiotic (Acinetobacter baumannii; [4]): enhanced effectiveness | effectiveness of the combination with antibiotic (Acinetobacter baumannii; in combination with meropenem): enhanced effectiveness | effectiveness of the combination with antibiotic ([1]; in combination with ampicillin): enhanced effectiveness | effectiveness of the combination with antibiotic ([1]; in combination with penicillin G): enhanced effectiveness | enhancement of the action of ceftazidime (Klebsiella pneumoniae; ceftazidime 30 μg + Compound C 15 μg): very strongly enhances; also recorded: strongly enhances | effectiveness of the combination with antibiotic (Klebsiella pneumoniae; in combination with ceftazidime (second round)): enhanced effectiveness | effectiveness of the combination with antibiotic (Klebsiella pneumoniae; [5]): enhanced effectiveness | effectiveness of the combination with antibiotic (Klebsiella pneumoniae; in combination with meropenem (second round)): enhanced effectiveness | effect on the activity of meropenem (Klebsiella pneumoniae; meropenem 10 μg + Compound C 15 μg): essentially no effect | effect on the activity of meropenem (Klebsiella pneumoniae; meropenem 10 μg + Compound C 150 μg): only weakly enhances | antibacterial activity of the agent by itself (Klebsiella pneumoniae; single agent disk, ceftazidime 30 μg, meropenem 10 μg, Compound C 15 μg): no activity on its own | microbiologic and clinical success [2]: both microbiologic and clinical success | effectiveness of the combination with antibiotic (Pseudomonas aeruginosa): enhanced effectiveness | effect on cefoxitin activity ([3]; cefoxitin 30 μg + Compound C 15 μg): does not enhance cefoxitin activity | effect on cefoxitin activity ([3]; cefoxitin 30 μg + Compound C 150 μg): inhibits cefoxitin antibiotic activity | effectiveness of the combination with antibiotic ([3]; in combination with ampicillin): enhanced effectiveness | effectiveness of the combination with antibiotic ([3]; in combination with penicillin G (second round)): enhanced effectiveness | activation of the antibiotic action of penicillin G ([3]; penicillin G 10 μg + Compound C 15 μg): strongly enables; also recorded: activates the antibiotic action of penicillin G | activation of the antibiotic action of penicillin G ([3]; penicillin G 10 μg + Compound C 150 μg): further activate penicillin G | antibacterial activity of the agent by itself ([3]; single agent disk, penicillin G 10 μg, cefoxitin 30 μg, Compound C 15 μg): no antibacterial activity | effectiveness of the combination with antibiotic (Citrobacter freundii; [4]): enhanced effectiveness | effectiveness of the combination with antibiotic (Citrobacter freundii; [5]): enhanced effectiveness | effectiveness of the combination with antibiotic (Citrobacter freundii; in combination with meropenem): enhanced effectiveness | effectiveness of the combination with antibiotic (Escherichia coli; in combination with amoxycillin): enhanced effectiveness | effectiveness of the combination with antibiotic (Escherichia coli; [4]): enhanced effectiveness | effectiveness of the combination with antibiotic (Escherichia coli; [5]): enhanced effectiveness | effectiveness of the combination with antibiotic (Escherichia coli; in combination with meropenem): enhanced effectiveness
